Non-standard residues stand in square brackets, D forms with d. No end group written: not given here. pY = N[C@@H](Cc1ccc(OP(=O)(O)O)cc1)C(=O)O
Tests used:
[1] = system: B16 melanoma; test: B16 melanoma lung metastasis in C57BL/6 mice; assay type: in vivo, mouse
Text: Figure 7 PS-acet.-STAT3 peptide treatment efficiently reduces mouse melanoma lung metastasis. (A) Systemic PS-acet.-STAT3 peptide treatment reduces B16 lung nodules in syngeneic mouse model compared with control treatments. The B16 lung nodules in mice treated with the indicated STAT3 peptides and vehicle (n = 5) were visualized by IF staining of gp100 and quantified by confocal microscopy and Zen software. The levels of phosphorylation of STAT3 (p-STAT3), CD69, and Foxp3 in the tumor or tumor-infiltrating CD8^+ T or CD4^+ T cells were detected by IF staining followed by confocal microscopy in B16 metastatic lung nodules upon treatments with vehicle, PO- or PS-acet.-STAT3, PS-STAT3-K685R, or PS-unacet.-STAT3 peptides as indicated. Images are representative of 5 lungs per experimental group. Scale bars: 20 μm (CD69, CD8, CD4, p-STAT3, and Foxp3) and 100 μm (gp100). White arrows indicate the immune cells. Insets: original magnification, ×40. (B) The graphs show the quantification of gp100 and p-STAT3 expression levels (MFI) or the cell population (%) of CD69^+ in CD8^+ or p-STAT3^+ in CD4^+ or Foxp3^+ in CD4^+ (data represent 5 lungs per group, n = 5). SD is shown. One-way ANOVA; ****P < 0.001.
Mouse care and experimental procedures were performed under pathogen-free conditions in accordance with established institutional guidance and approved IACUC protocols from Research Animal Care Committee of the City of Hope. For s.c. tumor challenge, 5 × 10^6 HCT116 cells were injected into NSG mice from The Jackson Laboratory or animal resource core facility at the City of Hope. After tumors reached an average size of 80~100 mm^3, mice were locally or intravenously treated with 1 mg/kg of PO- or PS-peptides (Anaspec) every day or every other day. Control animals were treated with the equal volume of HBSS (Invitrogen, Thermo Fisher Scientific). Tumor growth was measured by a digital caliper every other day. To study the effects of the modified peptides at protein and gene levels, mice were euthanized 4–6 weeks after tumor injection. B16 melanoma lung metastasis was performed by injecting 0.5 × 10^6 B16 cells into bloodstream of C57BL/6 mice (The Jackson Laboratory). One day after tumor challenge, mice were treated intravenously (retro-orbitally) with 1 mg/kg of PO- or PS-acet.-STAT3, PS-unacet.-STAT3, or PS-STAT3-K685R peptides every other day until the endpoint as indicated. Control mice were treated with HBSS. Lungs were excised from the mice, and B16 nodules were visualized by gp100 staining. Lungs were then analyzed for immune responses by immunostaining followed by confocal imaging. For mouse PDAC model, 5 × 10^6 KPC mouse cells were mixed with Matrigel and subcutaneously injected into C57BL/6 mice (The Jackson Laboratory). After tumors reached an average size of 80~100 mm^3, mice were intravenously treated with 1 mg/kg of PO- or PS-Gp130, PS-oligo, PS-SC-MYC, PS-MYC. or combined PS-Gp130/PS-MYC (0.5 mg/kg, 0.5 mg/kg) (Anaspec) every other day for 18 days. Control animals were treated with the equal volume of HBSS (Invitrogen, Thermo Fisher Scientific). Tumor growth was measured by a digital caliper every other day. To study the effects of the modified peptides at protein and gene levels, mice were euthanized at the endpoint as indicated.

[2] = system: CRC patient primary tumor spheres
Experimental: TAMRA-acet.-STAT3 (red fluorescence) and PO-FAM-acet.-STAT3 (green fluorescence)
peptides were incubated with patient primary tumor sphere for 4 hours and the cell penetration
was visualized by confocal microscopy. Scale bar: 50 µm.
(D) The primary CRC tumor cells derived from PDX were treated with different concentrations of
PO- or PS-acet.-STAT3 peptide as indicated for 3 days. The cell viability was measured by
CellTiter Glo assay and normalized with vehicle (HBSS) treatment. Data represent 3
independent experiments (n=3). SD is shown. Unpaired Student’s t-test ****; P< 0.001; **, P<
(E) Gene expression of MYC, MMP9 and BIRC5 was detected by qPCR and normalized with
ACTB after vehicle, 1 µM of PO-or PS-acet.-STAT3 peptide treatment with CRC PDX tumor
cells. Data represent 3 independent experiments (n=3). SD is shown. One-way ANOVA. ****; P<

[3] = system: EGF-mediated ERK phosphorylation; test: EGF-mediated ERK phosphorylation, Western blotting; assay type: cell-based; conditions: preincubated 2 hours, 30 ng/mL EGF for 30 minutes
Experimental: (§1) Figure 8 PS-Gp130 and PS-MYC blocking peptides efficiently internalize into tumor cells to exert their functions. (A) For 1 hour 1 μM of PS-conjugated MYC (PS-MYC) and Gp130 (PS-Gp130) were incubated with cancer cells. PS-scramble MYC (PS-SC-MYC) was used as a control for PS-MYC. The peptide uptake was visualized by confocal microscopy and quantified by flow cytometry. Data are representative of 3 independent experiments (n = 3). (B) Upper panel: The binding of PS-Gp130 and STAT3 was examined by immunoprecipitation and Western blotting. PO-Gp130 was used as a control. For 4 hours prior to harvest, 1 μM of peptide was incubated with cells. Lower panel: PS-Gp130 inhibits IL-6–induced phosphorylation of STAT3 and p44/42 but not EGF-mediated signaling. The cells were preincubated with PS-Gp130 for 2 hours and then stimulated with 20 ng/mL of IL-6 or 30 ng/mL of EGF for 30 minutes before harvest and Western blotting. (C) Gene expression of STAT3 targets was examined by quantitative PCR after the treatment with 1 μM of PS-Gp130 with or without IL-6 stimulation as described above. Data shown are 3 independent experiments (n = 3); SD is shown. Unpaired Student’s t test; ***P < 0.005; **P < 0.01; *P < 0.05. (D) A total of 1 μM of PS-SC-MYC or PS-MYC was incubated with cells for 48 hours before the gene expression of MYC targets was examined by quantitative PCR. […]

[4] = system: cancer cells; test: Confocal microscopy of peptide localisation; assay type: cell-based; conditions: 1 μM, 1 hour
Experimental: as §1

[5] = system: IL-6–induced STAT3 phosphorylation; test: IL-6–induced STAT3 phosphorylation, Western blotting; assay type: cell-based; conditions: preincubated 2 hours, 20 ng/mL IL-6 for 30 minutes
Experimental: as §1

| Substance | metastatic lung nodules ([1]; B16 i.v. in C57BL/6 mice, 1 mg/kg i.v. every other day, gp100 staining, n = 5) | STAT3 activation (p-STAT3) in tumor cells and CD4+ T cells ([1]; B16 lung nodules, IF staining, confocal) | infiltration of CD69+ activated CD8+ T cells in metastatic B16 lung nodules ([1]; IF staining, confocal) | tumor-associated FoxP3+CD4+ T cells (regulatory T cells) ([1]; IF staining, confocal) | effects on cell proliferation and gene expression of STAT3 target genes in patient primary tumor spheres ([2]; 3 days, CellTiter Glo, 1 µM, qPCR of MYC, MMP9, BIRC5, n = 3) | cell permeability in patient primary tumor spheres ([2]; not told) | EGF-mediated ERK phosphorylation [3] | intracellular localisation / retention of peptide [4] | IL-6–induced STAT3 phosphorylation [5] |
| --- | --- | --- | --- | --- | --- | --- | --- | --- | --- |
| PDIPKEEAFGK685(Ac)YCRPESQEHPC-linker-T*C*C*A*T*G*A*G*C*T*T*C*C*T*G*A*T*G*C*T [PS-acet.-STAT3 peptide] | striking reduction | significantly decreased | increased | concomitantly reduced | significant inhibitory effects | high cell permeability |  |  |  |
| PS-Gp130: PS-conjugated Gp130 peptide (amino acids 901–910) with phospho-Tyr905 (MPKS[pY]LPQTV; also: phosphorothioate oligonucleotide conjugate; UniProt P40189 901-910, looked up, fragment) |  |  |  |  |  |  | not | detected in the cytoplasm or associated with the membrane | selectively inhibited |
